Target: T1, Purified P450arom (aromatase) reconstituted with P450-reductase (CPR) (Homo sapiens, UniProt P11511)
T1 sequence (P11511 1-503): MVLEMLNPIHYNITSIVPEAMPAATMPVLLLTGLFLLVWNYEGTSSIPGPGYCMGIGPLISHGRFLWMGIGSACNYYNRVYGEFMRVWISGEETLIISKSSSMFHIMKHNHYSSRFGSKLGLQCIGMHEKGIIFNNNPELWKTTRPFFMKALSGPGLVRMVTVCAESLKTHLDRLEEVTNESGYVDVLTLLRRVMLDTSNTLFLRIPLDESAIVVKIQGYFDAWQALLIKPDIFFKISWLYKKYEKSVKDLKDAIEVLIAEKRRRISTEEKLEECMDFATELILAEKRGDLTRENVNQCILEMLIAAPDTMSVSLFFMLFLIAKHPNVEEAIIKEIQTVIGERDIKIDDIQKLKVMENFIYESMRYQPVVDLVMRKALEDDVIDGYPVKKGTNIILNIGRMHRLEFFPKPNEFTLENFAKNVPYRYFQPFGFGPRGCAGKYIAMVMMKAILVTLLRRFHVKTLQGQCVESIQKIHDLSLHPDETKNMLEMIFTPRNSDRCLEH
Assay: Measurement of aromatase activity by 3H-water method
Type: biochemical
Conditions: substrate 0.24 μM [1β-3H, 4-14C] androstenedione, 37° C., 20 minutes

[1] = compound concentration 10 (μmol)
[2] = compound concentration 1 (μmol)
[3] = compound concentration 0.1 (μmol)

SMILES	% Inhibition [1] [%]	% Inhibition [2] [%]	% Inhibition [3] [%]
C[C@]12CCC(=O)C=C1C(Br)C[C@@H]1[C@@H]2CC[C@]2(C)C(=O)CC[C@@H]12 (some centres unmarked) [HDDG-017]	64	–	–
CO[C@H]1C[C@@H]2[C@H](CC[C@]3(C)C(=O)CC[C@@H]23)[C@@]2(C)C=CC(=O)C=C12 [HDDG-014]	42	–	–
CO[C@@H]1C[C@@H]2[C@H](CC[C@]3(C)C(=O)CC[C@@H]23)[C@@]2(C)C=CC(=O)C=C12 [HDDG-009]	55	–	–
C[C@]12C=CC(=O)C=C1C=C[C@@H]1[C@@H]2CC[C@]2(C)C(=O)CC[C@@H]12 [HDDG-003]	80	67	–
COc1ccc(COC2=C(O)CC[C@@]3(C)C2=CC[C@@H]2[C@@H]3CC[C@]3(C)C(=O)CC[C@@H]23)cc1 [HDDG-064]	–	96	96
C[C@]12CCC(=O)CC1=CC[C@@H]1[C@@H]2CC[C@]2(C)C(=O)CC[C@@H]12 [HDDG-018]	41	–	–
C[C@]12C=CC(=O)C=C1[C@H](O)C[C@@H]1[C@@H]2CC[C@]2(C)C(=O)CC[C@@H]12 [HDDG-010]	55	–	–
C#CC(C)(C)O[C@@H]1C[C@@H]2[C@H](CC[C@]3(C)C(=O)CC[C@@H]23)[C@@]2(C)C=CC(=O)C=C12 [HDDG-028]	35	44	18
CCC#CCO[C@@H]1C[C@@H]2[C@H](CC[C@]3(C)C(=O)CC[C@@H]23)[C@@]2(C)CCC(=O)C=C12 [HDDG-042]	99	95	40
C[C@]12C=CC(=O)C=C1[C@H](OC/C=C/c1ccccc1)C[C@@H]1[C@@H]2CC[C@]2(C)C(=O)CC[C@@H]12 [HDDG-058, (6R,8R,9S,10R,13S,14S)-6-(cinnamyloxy)-10,13-dimethyl-7,8,9,10,11,12,13,14,15,16-decahydro-3H-cyclopenta[α]phenanthrene-3,17(6H)-dione]	–	94	95
CC#CCO[C@@H]1C[C@@H]2[C@H](CC[C@]3(C)C(=O)CC[C@@H]23)[C@@]2(C)C=CC(=O)C=C12 [HDDG-029]	95	63	34
C[C@]12CCC(O)=C(OCc3ccccc3)C1=CC[C@@H]1[C@@H]2CC[C@]2(C)C(=O)CC[C@@H]12 [HDDG-050, (8R,9S,10R,13S,14S)-4-(benzyloxy)-3-hydroxy-10,13-dimethyl-7,8,9,10,11,12,13,14,15,16-decahydro-1H-cyclopenta[α]phenanthren-17(2H)-one]	100	96	75
C[C@]12CCC(=O)C(=[N+]=[N-])C1=CC[C@@H]1[C@@H]2CC[C@]2(C)C(=O)CC[C@@H]12 [HDDG-023]	33	30	24
CCC(=O)OC1=C(O)C=CC2(C)C1=CCC1C2CCC2(C)C(=O)CCC12 (centres unmarked) [HDDG-022]	86	86	51
N#Cc1ccc(C(c2ccc(C#N)cc2)n2cncn2)cc1 [Letrazole, reference compound]	–	98	76
C[C@]12C=CC(O)=C(OC(=O)Cc3ccccc3)C1=CC[C@@H]1[C@@H]2CC[C@]2(C)C(=O)CC[C@@H]12 [HDDG-019]	54	–	29
C[C@]12C=CC(=O)C=C1[C@H](OCc1ccccc1)C[C@@H]1[C@@H]2CC[C@]2(C)C(=O)CC[C@@H]12 [HDDG-016]	52	–	–
C[C@]12C=CC(=O)C=C1[C@H](OCC#Cc1cccc3ccccc13)C[C@@H]1[C@@H]2CC[C@]2(C)C(=O)CC[C@@H]12 [HDDG-054, (6R,8R,9S,10R,13S,14S)-10,13-dimethyl-6-((3-(naphthalen-1-yl)prop-2-yn-1-yl)oxy)-7,8,9,10,11,12,13,14,15,16-decahydro-3H-cyclopenta[α]phenanthrene-3,17(6H)-dione]	–	92	94
C[C@]12C=CC(=O)C(=[N+]=[N-])C1=CC[C@@H]1[C@@H]2CC[C@]2(C)C(=O)CC[C@@H]12 [HDDG-004]	40	25	–

Source: patent US8969327B2, “Substituted androst-4-ene diones” (priority 2010, dated 2015)
